Here are results for two compounds from publication PMC3158675, “Effective inhibitors of the essential kinase PknB and their potential as anti-mycobacterial agents” (Tuberculosis (Edinburgh, Scotland), 2011).

This test deals with M. tuberculosis ompA mutant. The test is classed as cell-based.

For `CC[C@H]1OC(=O)[C@H](C)[C@@H](O[C@H]2C[C@@](C)(OC)[C@@H](O)[C@H](C)O2)[C@H](C)[C@@H](O[C@@H]2O[C@H](C)C[C@H](N(C)C)[C@H]2O)[C@](C)(O)C[C@@H](C)C(=O)[C@H](C)[C@@H](O)[C@]1(C)O` [erythromycin], the “Sensitivity of M. tuberculosis ompA mutant compared to wild type” value is given as “slightly increased resistance”.

In the case of `CN[C@H](CC(C)C)C(=O)N[C@H]1C(=O)N[C@@H](CC(N)=O)C(=O)N[C@H]2C(=O)N[C@H]3C(=O)N[C@H](C(=O)N[C@H](C(=O)O)c4cc(O)cc(O)c4-c4cc3ccc4O)[C@H](O)c3ccc(c(Cl)c3)Oc3cc2cc(c3O[C@@H]2O[C@H](CO)[C@@H](O)[C@H](O)[C@H]2O[C@H]2C[C@](C)(N)[C@H](O)[C@H](C)O2)Oc2ccc(cc2Cl)[C@H]1O` [vancomycin], the “Sensitivity of M. tuberculosis ompA mutant compared to wild type” value is recorded as “slightly increased resistance”.
